Like-named read-outs stand apart in the source and are kept apart here.
What was measured:
Coriolus versicolor = assay: MIC, radial hyphal growth on malt extract peptone nutrient agar; format: cell-based; details: Trametes versicolor
Method: (§1) The synergism was then determined using the method described by Kull et al. (F. C. Kull, P. C. Eismann, H. D. Sylvestrowicz, R. L. Mayer, Applied Microbiology 9, 538 to 541, 1961). Here, the following relationships apply:
(§2) Qa=concentration of substance A which corresponds to the MIC
(§3) Qb=concentration of substance B which corresponds to the MIC
(§4) QA=concentration of substance A in the concentration of A/B which suppresses microbial growth
(§5) QB=concentration of substance B in the concentration of A/B which suppresses microbial growth
(§6) SI=1 means the activities are additive
Various concentrations of prochloraz (A), tebuconazole (B) and mixtures (AB) of the two active compounds mentioned were tested against the wood-destroying Basidiomycetes Coriolus versicolor. Mycelium pieces were punched out of a colony of the wood-destroying organism and incubated at 26° C. on a nutrient agar which contained malt extract peptone. The radial growth of the hypha with and without added active compound was then compared. The minimum inhibitory concentration (MIC) stated below is the lowest concentration of active compound at which the radial growth is suppressed completely.

Trichurus spiralis = assay: MIC on nutrient agar media against soft-rot pathogen; format: cell-based
Method: as §1, §2, §3, §4, §5, §6
Various concentrations of prochloraz (A), tebuconazole (B) and mixtures of the two active compounds mentioned (AB) were tested against the soft-rot pathogen Trichurus spiralis on nutrient agar media. The minimum inhibitory concentration (MIC) refers to the value of the active compound or the active compound mixture in question where no growth could be observed.

blueing fungi = details: J. A. Drysdale et al., New Zealand Journal of Forestry Science 1982; cited from earlier work
[1] = tested on: microorganisms in biologically active soil; assay: Soil burial of treated cotton sailcloth (DIN ENV 807), tear resistance; details: cloth drenched with 800 ppm single active compound in ethanol; 4 weeks in biologically active soil
Method: Untreated cotton sailcloth consisting of cellulose (500 g/m^2) was drenched with a solution of 800 ppm of prochloraz (A) and 800 ppm of tebuconazole (B) and a mixture (AB) comprising 200 ppm of prochloraz and 200 ppm of tebuconazole in ethanol. The samples were dried at 23° C. and 50% relative atmospheric humidity for 7 days and incorporated into biologically active soil according to DIN ENV 807. After 4 weeks, tear resistance of the cotton cloth was determined as a measure for the protection against destruction by microorganisms achieved by the active compounds.

| Compound | MIC (Coriolus versicolor) [µg/mL] | MIC (Trichurus spiralis) [µg/mL] | activity against blueing fungi (blueing fungi) | tear resistance of the cotton cloth [1] | MIC (Coriolus versicolor; Coriolus versicolor, 26° C., malt extract peptone agar, lowest concentration at which radial growth is suppressed completely, read-out: MIC) [µg/mL] | MIC (Trichurus spiralis; nutrient agar, concentration where no growth could be observed, read-out: MIC) [µg/mL] |
| --- | --- | --- | --- | --- | --- | --- |
| CCCN(CCOc1c(Cl)cc(Cl)cc1Cl)C(=O)n1ccnc1 [A, N-propyl-N-[2-(2,4,6-trichlorophenoxy)ethyl]imidazole-1-carboxamide] | 6 | 5 | insufficiently active | easy to tear |  |  |
| CC(C)(C)C(O)(CCc1ccc(Cl)cc1)Cn1cncn1 (stereo not shown) [B, tebuconazole] |  |  |  | easy to tear | 0.3 | 200 |
